# According to patent US20060069132A1, “Azolecarboxamide herbicides” (priority 2004, published 2006):
# Key:
# lambsquarters = assay: Test B pre-/postemergence herbicide test; type: in vivo, Chenopodium album; conditions: for Lambsquarters plant response rating: postemergence, visual rating, scale 0 (no effect) to 100 (complete control)
# How it was run: (§1)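 Response was scored visually 13 to 15 days after treatment against untreated greenhouse controls, 0 meaning no effect and 100 complete control. Formulations (solvent mixture plus surfactant) went onto soil after planting, onto foliage of 1- to 4-leaf plants, and onto 2-leaf plants in a flooded paddy set including rice and barnyardgrass.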
# giant foxtail = assay: Test B pre-/postemergence herbicide test; type: in vivo, Setaria faberi; conditions: for Foxtail, Giant plant response rating: postemergence, visual rating, scale 0 (no effect) to 100 (complete control)
# How it was run: as §1
# cocklebur = assay: Test B pre-/postemergence herbicide test; type: in vivo, Xanthium strumarium; conditions: for Cocklebur plant response rating: postemergence, visual rating, scale 0 (no effect) to 100 (complete control)
# How it was run: (§2)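 Greenhouse pot assay with simultaneous preemergence (treated seed) and postemergence (2–18 cm seedlings) applications of surfactant-containing, non-phytotoxic solvent formulations. Response scored visually 13–15 days later on a 0–100 scale, 100 meaning complete control.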
# velvetleaf = assay: Test B pre-/postemergence herbicide test; type: in vivo, Abutilon theophrasti; conditions: for Velvetleaf plant response rating: postemergence, visual rating, scale 0 (no effect) to 100 (complete control)
# How it was run: as §1
# barnyardgrass [1] = assay: Test B flooded paddy test; type: in vivo, Echinochloa crus-galli; conditions: 1000 g ai/ha, visual rating, scale 0 to 100 (0 no effect, 100 complete control), 13 to 15 days
# How it was run: (§3)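 Greenhouse test; postemergence application to plants at 1–4 leaves (2–18 cm); paddy species at 2 leaves; evaluated visually vs controls at 13–15 days; scale 0–100 (100 = complete control).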
# wheat = assay: Test B postemergence herbicide test; type: in vivo, Triticum aestivum; parameters: key to Wheat plant response rating: 0 = no effect, 100 = complete control; conditions: postemergence, visual rating, scale 0 (no effect) to 100 (complete control)
# How it was run: (§4)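 Each value is a visual 0–100 response rating taken against controls 13 to 15 days after treatment in the greenhouse. Plants received formulated chemical postemergence at the 1- to 4-leaf stage or, in flooded paddy, at the 2-leaf stage.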
# [2] = test system: small flower umbrella sedge; assay: Test B flooded paddy test; type: in vivo, Cyperus difformis; conditions: 1000 g ai/ha, visual rating, scale 0 to 100 (0 no effect, 100 complete control), 13 to 15 days
# How it was run: as §3
# barnyardgrass [3] = assay: Test B pre-/postemergence herbicide test; type: in vivo, Echinochloa crus-galli; conditions: for Barnyardgrass plant response rating: postemergence, visual rating, scale 0 (no effect) to 100 (complete control)
# How it was run: as §2
# rice [4] = assay: Test B pre-/postemergence herbicide test; type: in vivo, Oryza sativa; conditions: preemergence
# How it was run: as §1
# rice [5] = assay: Test B flooded paddy test; type: in vivo, Oryza sativa; conditions: 1000 g ai/ha, visual rating, scale 0 to 100 (0 no effect, 100 complete control), 13 to 15 days
# How it was run: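 Postemergence plants were sprayed with formulated test chemicals at 2 to 18 cm height (1- to 4-leaf stage); paddy species were grown to the 2-leaf stage. After 13 to 15 days in a greenhouse, injury was rated visually against untreated controls on a 0–100 scale (0 = no effect, 100 = complete control).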
# Surinam grass = assay: Test B pre-/postemergence herbicide test; type: in vivo, Urochloa decumbens; conditions: for Surinam Grass plant response rating: postemergence, visual rating, scale 0 (no effect) to 100 (complete control)
# How it was run: as §1
# large crabgrass = assay: Test B pre-/postemergence herbicide test; type: in vivo, Digitaria sanguinalis; conditions: for Crabgrass, Large plant response rating: postemergence, visual rating, scale 0 (no effect) to 100 (complete control)
# How it was run: as §1
# corn = assay: Test B pre-/postemergence herbicide test; type: in vivo, Zea mays; conditions: for Corn plant response rating: postemergence, visual rating, scale 0 (no effect) to 100 (complete control)
# How it was run: as §1
# blackgrass = assay: Test B postemergence herbicide test; type: in vivo, Alopecurus myosuroides; conditions: postemergence, visual rating, scale 0 (no effect) to 100 (complete control)
# How it was run: as §3
# ducksalad = assay: Test B flooded paddy test; type: in vivo, Heteranthera limosa; conditions: 1000 g ai/ha, visual rating, scale 0 to 100 (0 no effect, 100 complete control), 13 to 15 days
# How it was run: as §3
# wild oat = assay: Test B postemergence herbicide test; type: in vivo, Avena fatua; conditions: postemergence, visual rating, scale 0 (no effect) to 100 (complete control)
# How it was run: as §4
# pigweed = assay: Test B pre-/postemergence herbicide test; type: in vivo, Amaranthus retroflexus; conditions: for Pigweed plant response rating: postemergence, visual rating, scale 0 (no effect) to 100 (complete control)
# How it was run: as §1
# morningglory = assay: Test B pre-/postemergence herbicide test; type: in vivo, Ipomoea coccinea; conditions: for Morningglory plant response rating: postemergence, visual rating, scale 0 (no effect) to 100 (complete control)
# How it was run: as §2
# [6] = 125 g ai/ha, 0 = no effect, 100 = complete control, preemergence
# [7] = 500 g ai/ha, visual rating 0-100, 0 no effect, 100 complete control, preemergence
structure (smiles),measurement,setting,value
CCCc1nn(C(C)(C)C)cc1C(=O)Nc1cccc(C(=O)N(CC)CC)c1 [Compound 185],Lambsquarters plant response rating (0 to 100 scale),lambsquarters; [6],20
same,"Plant response rating, Lambsquarters",lambsquarters; [7],80
same,Lambsquarters plant response rating,lambsquarters; 125 g ai/ha,60
same,Lambsquarters plant response rating,lambsquarters; 500 g ai/ha,70
same,"Foxtail, Giant plant response rating (0 to 100 scale)",giant foxtail; [6],0
same,"Plant response rating, Foxtail, Giant",giant foxtail; [7],70
same,"Foxtail, Giant plant response rating",giant foxtail; 125 g ai/ha,20
same,"Foxtail, Giant plant response rating",giant foxtail; 500 g ai/ha,30
same,Cocklebur plant response rating (0 to 100 scale),cocklebur; [6],0
same,"Plant response rating, Cocklebur",cocklebur; [7],0
same,Cocklebur plant response rating,cocklebur; 125 g ai/ha,20
same,Cocklebur plant response rating,cocklebur; 500 g ai/ha,50
same,Velvetleaf plant response rating (0 to 100 scale),velvetleaf; [6],10
same,"Plant response rating, Velvetleaf",velvetleaf; [7],50
same,Velvetleaf plant response rating,velvetleaf; 125 g ai/ha,30
same,Velvetleaf plant response rating,velvetleaf; 500 g ai/ha,50
same,Barnyardgrass plant response rating,barnyardgrass [1],0
same,Wheat plant response rating,wheat; 125 g ai/ha,0
same,Wheat plant response rating,wheat; 500 g ai/ha,10
same,"Sedge, Umbrella plant response rating",[2],60
same,Barnyardgrass plant response rating (0 to 100 scale),barnyardgrass [3]; [6],0
same,"Plant response rating, Barnyardgrass",barnyardgrass [3]; [7],70
same,Barnyardgrass plant response rating,barnyardgrass [3]; 125 g ai/ha,30
same,Barnyardgrass plant response rating,barnyardgrass [3]; 500 g ai/ha,50
same,Rice plant response rating (0 to 100 scale),"rice [4]; 125 g ai/ha, 0 = no effect, 100 = complete control",0
same,"Plant response rating, Rice","rice [4]; 500 g ai/ha, visual rating 0-100, 0 no effect, 100 complete control",0
same,Rice plant response rating,rice [5],0
same,Surinam Grass plant response rating (0 to 100 scale),Surinam grass; [6],10
same,"Plant response rating, Surinam Grass",Surinam grass; [7],20
same,Surinam Grass plant response rating,Surinam grass; 125 g ai/ha,20
same,Surinam Grass plant response rating,Surinam grass; 500 g ai/ha,30
same,"Crabgrass, Large plant response rating (0 to 100 scale)",large crabgrass; [6],0
same,"Plant response rating, Crabgrass, Large",large crabgrass; [7],50
same,"Crabgrass, Large plant response rating",large crabgrass; 125 g ai/ha,20
same,"Crabgrass, Large plant response rating",large crabgrass; 500 g ai/ha,40
same,Corn plant response rating (0 to 100 scale),corn; [6],0
same,"Plant response rating, Corn",corn; [7],0
same,Corn plant response rating,corn; 125 g ai/ha,20
same,Corn plant response rating,corn; 500 g ai/ha,30
same,Blackgrass plant response rating,blackgrass; 125 g ai/ha,0
same,Blackgrass plant response rating,blackgrass; 500 g ai/ha,0
same,Ducksalad plant response rating,ducksalad,0
same,"Oat, Wild plant response rating",wild oat; 125 g ai/ha,10
same,"Oat, Wild plant response rating",wild oat; 500 g ai/ha,30
same,Pigweed plant response rating (0 to 100 scale),pigweed; [6],0
same,"Plant response rating, Pigweed",pigweed; [7],100
same,Pigweed plant response rating,pigweed; 125 g ai/ha,60
same,Pigweed plant response rating,pigweed; 500 g ai/ha,80
same,Morningglory plant response rating (0 to 100 scale),morningglory; [6],0
same,"Plant response rating, Morningglory",morningglory; [7],50
same,Morningglory plant response rating,morningglory; 125 g ai/ha,40
same,Morningglory plant response rating,morningglory; 500 g ai/ha,70
